Laboratory results from article PMC11327230, “Scalability study on [^133La]LaCl3 production with a focus on potential clinical applications” (EJNMMI Radiopharmacy and Chemistry, 2024).

How the values were obtained:
[1] = 200 MBq; ref Afshar-Oromieh et al. [2016]; cited from earlier work
[2] = Stability of ^133La-PSMA radioconjugates in human serum, by radio-TLC; type: in vitro ADME; conditions: for stability in serum: ^133La-radioconjugate, up to / after 24 h; for HS stability 1 h / HS stability 4 h / HS stability 24 h: human serum/PBS pH 7, 37 °C, tested thrice
Description: Apparent molar activity (AMA) was quantified by titration with the macropa chelator in combination with radio-TLC. 3–10 µL [^133La]LaCl3 (4–7 MBq, approximately 10 MBq at EOB) were added to a buffered solution (ammonium acetate 200 mM, pH 6, total volume 100 µL) containing different chelator concentrations: 0.20 µM, 0.40 µM, 0.80 µM and 1.60 µM. These solutions were mixed at 500 rpm for 15 min at room temperature. The formed [^133La]La-macropa complex was analyzed using silica gel coated aluminum plates and developed with 50 mM EDTA as eluent. While the free lanthanum runs to the front, the complex remains at the start.
To assess the serum stability of both radiolabeled compounds, 75 µL of the ^133La-PSMA radioconjugates, accounting for ca. 50 MBq ^133La, were added to 75 µL of PBS buffer pH 7 and 150 µL of human serum and mixed at 500 rpm for 24 h at 37 °C. Silica gel plates were spotted after 1 h, 4 h and 24 h to evaluate the evolution of the complex stability. Each ^133La-PSMA radioligand and its molar activity was tested thrice.

[3] = as above; type: in vitro ADME; conditions: after 24 h in human serum, radio-TLC (Fig. 11)

| stability in serum ([2]; molar activity not given) [%] | HS stability 1 h ([2]; molar activity 40 GBq/µmol) [%] | HS stability 1 h ([2]; molar activity 80 GBq/µmol) [%] | HS stability 4 h ([2]; molar activity 40 GBq/µmol) [%] | HS stability 4 h ([2]; molar activity 80 GBq/µmol) [%] | HS stability 24 h ([2]; molar activity 40 GBq/µmol) [%] | HS stability 24 h ([2]; molar activity 80 GBq/µmol) [%] | stability in serum ([2]; molar activity not stated in the sentence) [%] | stability in serum ([2]; molar activity not stated in the sentence, listed as mcp-M-PSMA) [%] | free [^133Ba]Ba^2+ as share of the total radioactivity [3] [%] | Structure (SMILES) | effective dose [1] [mSv] |
| --- | --- | --- | --- | --- | --- | --- | --- | --- | --- | --- | --- |
|  |  |  |  |  |  |  |  |  |  | O=C([O-])CN(CCN(CC(=O)[O-])Cc1cc(CCC(=O)NCCCCCC(=O)NCCCC[C@H](NC(=O)N[C@@H](CCC(=O)O)C(=O)O)C(=O)O)ccc1[O-])Cc1cc(CCC(=O)O)ccc1[O-].[68Ga+3].[OH3+] [[^68Ga]Ga-PSMA-11] | 4.7 |
| > 98.5 ± 0.3 | 99.37 ± 0.12 | 99.57 ± 0.12 | 99.40 ± 0.01 | 99.60 ± 0.08 | 97.37 ± 0.17 | 98.5 ± 0.3 |  |  |  | O=C(O)CC[C@H](NC(=O)N[C@@H](CCCCNC(=O)[C@H](Cc1ccc2ccccc2c1)NC(=O)[C@H]1CC[C@H](CNC(=O)CN2CCN(CC(=O)O)CCN(CC(=O)O)CCN(CC(=O)O)CC2)CC1)C(=O)O)C(=O)O [[^133La]La-PSMA-617] |  |
|  | 100 ± 0 | 99.80 ± 0.01 | 100 ± 0 | 99.83 ± 0.08 | 99.57 ± 0.25 | 99.20 ± 0.08 | > 99 | > 99.20 ± 0.08 |  | O=C(O)CCC(NC(=O)NC(CCCCNC(=O)C(Cc1ccc2ccccc2c1)NC(=O)C1CCC(CNC(=O)CCCCn2cc(COc3cc(CN4CCOCCOCCN(Cc5cccc(C(=O)O)n5)CCOCCOCC4)nc(C(=O)O)c3)nn2)CC1)C(=O)O)C(=O)O (centres unmarked) [[^133La]La-mcp-M-PSMA] |  |
|  |  |  |  |  |  |  |  |  | 1.1 | [133La+3].[Cl-].[Cl-].[Cl-] [[^133La]LaCl3] |  |
